In one assay the test system is rabbit aorta rings. Put plainly: Vasorelaxant effect in vitro (phenylephrine-contracted aorta rings). The following applies: Oryctolagus cuniculus, phenylephrine contraction, read-out: IC50 (concentration reducing height of phenylephrine contraction by 50%). As to the method: Rabbits are stunned by a blow to the neck and exsanguinated. The aorta is removed, freed from adhering tissue and divided into rings of a width of 1.5 mm. The rings are placed individually under an initial tension in 5 ml organ baths with Krebs-Henseleit solution which is at 37° C., is gassed with carbogen and has the following composition (in each case mM): sodium chloride 119; potassium chloride: 4.8; calcium chloride dihydrate: 1; magnesium sulphate heptahydrate: 1.4; potassium dihydrogenphosphate: 1.2; sodium bicarbonate: 25; glucose: 10. The force of contraction is detected with Statham UC2 cells, amplified and digitized via A/D converters (DAS-1802 HC, Keithley Instruments, Munich) and recorded in parallel on chart recorders. To produce a contraction, phenylephrine is added to the bath cumulatively in increasing concentration. After several control cycles, the substance to be investigated is added in each further run in increasing dosage in each case, and the height of the contraction achieved is compared with the height of the contraction reached in the last preceding run. The concentration necessary to reduce the height of the control value by 50% is calculated from this (IC50 value). The standard administration volume is 5 μl and the proportion of DMSO in the bath solution corresponds to 0.1%.

Assay [1] concerns the target T1, recombinant guanylate cyclase reporter cell line (Rattus norvegicus, UniProt P19686+P20595).
T1 construct: expressed in transfected cells
T1 sequence (P20595 1-619): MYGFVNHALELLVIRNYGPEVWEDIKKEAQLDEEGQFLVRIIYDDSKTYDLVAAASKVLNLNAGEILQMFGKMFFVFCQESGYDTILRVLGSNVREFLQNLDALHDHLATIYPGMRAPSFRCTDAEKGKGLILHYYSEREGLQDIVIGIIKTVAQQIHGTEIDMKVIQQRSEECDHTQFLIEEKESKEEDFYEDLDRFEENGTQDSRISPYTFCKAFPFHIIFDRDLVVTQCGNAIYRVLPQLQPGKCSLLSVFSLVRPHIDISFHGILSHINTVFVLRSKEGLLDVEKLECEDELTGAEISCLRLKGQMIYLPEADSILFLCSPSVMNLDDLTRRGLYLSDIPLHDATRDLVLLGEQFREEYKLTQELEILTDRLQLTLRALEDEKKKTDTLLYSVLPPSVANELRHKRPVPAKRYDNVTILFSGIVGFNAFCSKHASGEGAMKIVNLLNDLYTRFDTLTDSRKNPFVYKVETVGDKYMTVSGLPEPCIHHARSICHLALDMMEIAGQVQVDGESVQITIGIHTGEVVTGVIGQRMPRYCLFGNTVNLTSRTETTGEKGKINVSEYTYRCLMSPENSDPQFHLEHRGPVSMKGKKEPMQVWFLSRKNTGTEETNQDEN
T1 sequence (P19686 1-690): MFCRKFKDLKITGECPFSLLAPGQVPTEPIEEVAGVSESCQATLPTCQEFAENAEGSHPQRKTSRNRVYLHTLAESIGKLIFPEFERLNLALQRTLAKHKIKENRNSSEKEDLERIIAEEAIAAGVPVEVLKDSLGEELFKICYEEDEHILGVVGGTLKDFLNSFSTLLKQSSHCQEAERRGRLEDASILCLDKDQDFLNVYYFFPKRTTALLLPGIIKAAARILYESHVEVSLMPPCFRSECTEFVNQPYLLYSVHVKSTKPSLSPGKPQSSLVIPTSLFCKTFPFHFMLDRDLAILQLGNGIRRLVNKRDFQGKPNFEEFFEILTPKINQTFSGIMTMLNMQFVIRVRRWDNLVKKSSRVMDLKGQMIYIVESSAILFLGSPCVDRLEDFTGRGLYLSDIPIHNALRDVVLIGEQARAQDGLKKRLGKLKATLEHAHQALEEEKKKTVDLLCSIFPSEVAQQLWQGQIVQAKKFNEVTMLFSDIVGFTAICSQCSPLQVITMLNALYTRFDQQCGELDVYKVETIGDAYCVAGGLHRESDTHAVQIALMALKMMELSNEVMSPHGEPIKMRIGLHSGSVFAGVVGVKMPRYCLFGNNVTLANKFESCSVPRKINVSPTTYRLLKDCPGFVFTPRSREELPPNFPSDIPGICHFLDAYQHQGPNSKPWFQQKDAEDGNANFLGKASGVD
As to the kind of experiment: Effect on a recombinant guanylate cyclase reporter cell line. The class given is cell-based. As to the method:
The cellular activity of the compounds according to the invention is determined using a recombinant guanylate cyclase reporter cell line, as described in F. Wunder et al., Anal. Biochem. 339, 104-112 (2005).

As to `COC(=O)Nc1c(N)nc(-c2nn(Cc3ccccc3F)c3ncc(F)cc23)nc1N` [Example 1, Methyl {4,6-diamino-2-[5-fluoro-1-(2-fluorobenzyl)-1H-pyrazolo[3,4-b]pyridin-3-yl]pyrimidin-5-yl}carbamate], the IC50 in the assay on rabbit aorta rings was determined as 0.958 µM. In assay [1], the “MEC (minimum effective concentration)” value amounted to 0.3 µM.
For `COC(=O)N(C)c1c(N)nc(-c2nn(Cc3ccccc3F)c3ncc(F)cc23)nc1N` [Example 2] the same measures were 0.251 µM and 0.1 µM.
The matching figures for `COC(=O)N(CC(F)(F)F)c1c(N)nc(-c2nn(Cc3ccccc3F)c3ncc(F)cc23)nc1N` [Example 3, Methyl {4,6-diamino-2-[5-fluoro-1-(2-fluorobenzyl)-1H-pyrazolo[3,4-b]pyridin-3-yl]pyrimidin-5-yl}(2,2,2-trifluoroethyl)carbamate]: 0.515 µM and 0.03 µM.

The values are drawn from patent US11439642B2 (Adverio Pharma GmbH, priority 2010, dated 2022).
